Data on 6 compounds can be found in US8691811B2, “Quinazolinone linked pyrrolo[2,1-c][1,4]benzodiazepine hybrids as potential anticancer agents and process for the preparation thereof” (Council of Scientific & Industrial Research, priority 2008, dated 2014).

Structures are written as SMILES.

For experiment [1], the system named is eleven human tumour cell lines. As to the kind of experiment: Tata protocol in vitro cytotoxicity (SRB, 48 h), all cell lines. It counts as cell-based. The following applies: bound over all eleven cell lines, read-out: GI50 value against eleven cell lines in seven cell panels. The method, then:
(§1) The C8-linked quinazolinone-PBD hybrids (5b, 5c, 5k, 5l, 5m) have been tested against eleven human tumour cell lines derived from seven cancer types (lung cancer, colon cancer, cervix, ovarian cancer, oral cancer, prostate cancer and breast cancer) as per Tata protocol. For each compound, dose response curves for individual cell lines have been measured at a minimum of five concentrations at 10 fold dilutions. A protocol of 48 h continuous drug exposure has been used, and a sulforhodamine B (SRB) protein assay was used to estimate cell viability or growth. Compounds 5b, 5c, 5k, 5l, 5m have been evaluated for their in vitro cytotoxicity in eleven cell lines from seven human cancer types of lung (Hop-62, A-549) colon (COLO-205) cervix (Si-Ha), ovary (A-2780), prostate (PC3) breast (MCF7, Zr-75-1), oral (DWD, GURAV, KB). The results are expressed as percent of cell growth determined relative to that of untreated control cells (Table-4).

The test system of another experiment is HOP-62. As to the kind of experiment: Tata protocol cytotoxicity (SRB, 48 h), HOP-62. The following applies: HOP-62, lung. The experiment is classed as cell-based, human. The method, then: as §1
For the next experiment, the system named is A-549. As to the kind of experiment: Tata protocol cytotoxicity (SRB, 48 h), A-549. It counts as cell-based, human. The method, then:
as §1

The test system of the next experiment is DWD. As to the kind of experiment: Tata protocol cytotoxicity (SRB, 48 h), DWD. The experiment is classed as cell-based, human. The following applies: oral. On the procedure:
as §1

A further experiment concerns GURAV. As to the kind of experiment: Tata protocol cytotoxicity (SRB, 48 h), GURAV. It counts as cell-based, human. The following applies: oral. The method, then:
as §1

In another experiment the test system is KB. As to the kind of experiment: Tata protocol cytotoxicity (SRB, 48 h), KB. The experiment is classed as cell-based, human. The following applies: oral. On the procedure: as §1
Another experiment deals with A-2780. As to the kind of experiment: Tata protocol cytotoxicity (SRB, 48 h), A-2780. The experiment is classed as cell-based, human. On the procedure:
as §1

In a further experiment the test system is PC-3. As to the kind of experiment: Tata protocol cytotoxicity (SRB, 48 h), PC-3. The experiment is classed as cell-based, human. The following applies: PC-3, prostate. On the procedure: as §1
The next experiment has as its system Si-Ha. As to the kind of experiment: Tata protocol cytotoxicity (SRB, 48 h), Si-Ha. The experiment is classed as cell-based, human. The note with it: cervix. On the procedure: as §1
A further experiment deals with Colo-205. As to the kind of experiment: Tata protocol cytotoxicity (SRB, 48 h), Colo-205. The note with it: Colo-205, colon. The experiment is classed as cell-based, human. The method, then:
as §1

Another experiment deals with Zr-75-1. As to the kind of experiment: Tata protocol cytotoxicity (SRB, 48 h), Zr-75-1. The experiment is classed as cell-based, human. The note with it: Zr-75-1, breast. On the procedure:
as §1

The subject of another experiment is MCF7. As to the kind of experiment: Tata protocol cytotoxicity (SRB, 48 h), MCF7. The following applies: MCF7, breast. The experiment is classed as cell-based, human. The method, then:
as §1

Experiment [2] concerns lung cancer cell lines (Hop-62, A-549). As to the kind of experiment: Tata protocol cytotoxicity (SRB, 48 h), lung panel. The experiment is classed as cell-based. The following applies: Homo sapiens; range over the panel; exposure period of at least 48 hrs; read-out: GI50, in vitro activity against lung. On the procedure: as §1
Experiment [3] concerns colon cancer cell line (COLO-205). As to the kind of experiment: Tata protocol cytotoxicity (SRB, 48 h), colon panel. It counts as cell-based. The following applies: Homo sapiens, exposure period of at least 48 hrs, read-out: GI50, in vitro activity against colon. The method, then: as §1
Experiment [4] has as its system ovarian cancer cell line (A-2780). As to the kind of experiment: Tata protocol cytotoxicity (SRB, 48 h), ovarian panel. The experiment is classed as cell-based. The note with it: Homo sapiens, A2780; exposure period of at least 48 hrs; read-out: GI50, in vitro activity against ovarian. On the procedure:
as §1

The test system of experiment [5] is prostate cancer cell line (PC3). As to the kind of experiment: Tata protocol cytotoxicity (SRB, 48 h), prostate panel. The following applies: Homo sapiens; exposure period of at least 48 hrs; read-out: GI50, in vitro activity against prostate. The experiment is classed as cell-based. The method, then: as §1
Experiment [6] deals with breast cancer cell lines (MCF7, Zr-75-1). As to the kind of experiment: Tata protocol cytotoxicity (SRB, 48 h), breast panel. The experiment is classed as cell-based. The following applies: Homo sapiens; range over the panel; exposure period of at least 48 hrs; read-out: IC50, in vitro activity against breast. On the procedure: as §1
Experiment [7] concerns duplex-form calf thymus DNA (CT-DNA). As to the kind of experiment: Thermal denaturation studies with calf thymus DNA. The note with it: [PBD]:[DNA] molar ratio 1:5, CT-DNA 100 μM, ligand 20 μM, pH 7.00. It counts as binding. On the procedure:
Compounds have been subjected to thermal denaturation studies with duplex-form calf thymus DNA (CT-DNA) using a modification of a reported procedure. Working solutions in aqueous buffer ([…] NaH2PO4/Na2HPO4, 1 mM Na2EDTA, pH 7.00+0.01). containing CT-DNA (100 μm in phosphate) and the PBD (20 μm) have been prepared by addition of concentrated PBD solutions in DMSO to obtain a fixed [PBD]/[DNA] molar ratio of 1:5. The DNA-PBD solutions have been incubated at 37° C. for 0 and 18 hrs prior to analysis. Samples have been monitored at 260 nm using a Beckman DU-800 spectrophotometer fitted with high performance temperature controller, and heated at 1° C. min^−1 in the 40-110° C. range. DNA helix→coil transition temperatures (Tm) have been obtained from the maxima in the d(A260)/dT derivative plots. Drug-induced alterations in DNA melting behavior are given by: ΔTm=Tm(DNA+PBD)−Tm(DNA alone), where the Tm value for the PBD-free CT-DNA is 68.5±0.01.
The DNA-binding for these novel C8-linked quinazolinone-PBD hybrids has been examined by thermal denaturation studies using calf thymus (CT) DNA. […] Data for 5b, 5c, 5d, and 5k, 5l, 5m and DC-81 are included in Table 5 for comparison.

As usually defined, the GI50 is the concentration at which growth is held to half of that of the control. In general, IC50 refers to the concentration that inhibits the measured activity by half. Regarding `COc1cc2c(cc1OCCCOc1ccc(-n3c(C)nc4ccccc4c3=O)cc1)N=C[C@@H]1CCCN1C2=O` [5b, 7-methoxy-8{-3-[4-(2-methyl-4-oxo-3,4-dihydro-3-quinazolinyl)phenoxy]propoxy}-(11aS)-1,2,3,11a-tetrahydro-5H-pyrrolo[2,1-c][1,4]benzodiazepine-5-one], the GI50 is under 1830 nM in experiment [1]; 160 nM with HOP-62 (Homo sapiens); 1480 nM with A-549 (Homo sapiens, A549, A-549, lung); 110 nM in the experiment with DWD (Homo sapiens); 130 nM in the experiment on GURAV (Homo sapiens); 150 nM with KB (Homo sapiens). The GI50 is 100 nM in the experiment with A-2780 (Homo sapiens, A2780, A-2780, ovary); 130 nM in the experiment with PC-3 (Homo sapiens); 160 nM in the experiment on Si-Ha (Homo sapiens, SiHa); 140 nM with Colo-205 (Homo sapiens); 160 nM with Zr-75-1 (Homo sapiens); 1830 nM in the experiment on MCF7 (Homo sapiens). Besides, the GI50 in [2] was 160 to 1480 nM; in experiment [3], 140 nM; in experiment [4], 100 nM; in experiment [5], 130 nM. For the same compound, the half-maximal inhibitory concentration (IC50) in [6] was in the range of 160 to 1830 nM. In addition, the “ΔTm after incubation at 37° C. for 0 h” value in [7] stood at 1.0 °C. For the same compound, in [7], the “ΔTm after incubation at 37° C. for 18 h” value was determined as 2.0 °C.
In the case of `COc1cc2c(cc1OCCCCOc1ccc(-n3c(C)nc4ccccc4c3=O)cc1)N=C[C@@H]1CCCN1C2=O` [5c, 7-methoxy-8{-4-[4-(2-methyl-4-oxo-3,4-dihydro-3-quinazolinyl)phenoxy]butoxy-}-(11aS)-1,2,3,11a-tetrahydro-5H-pyrrolo[2,1-c][1,4]benzodiazepine-5-one], the GI50 was found to be 1950 nM in the experiment with HOP-62; 1930 nM with A-549 (A-549, lung); 1600 nM in the experiment on DWD; 1950 nM in the experiment on GURAV; 1980 nM with KB; 160 nM in the experiment on A-2780 (A-2780, ovary). Besides, the GI50 amounted to 170 nM in the experiment on PC-3; 1910 nM in the experiment on Si-Ha; 1810 nM in the experiment with Colo-205; 1970 nM in the experiment on Zr-75-1; 2300 nM in the experiment with MCF7. Further, in [7], the “ΔTm after incubation at 37° C. for 0 h” value came out at 1.0 °C. In addition, the “ΔTm after incubation at 37° C. for 18 h” value in experiment [7] came to 2.1 °C.
As to `COc1cc2c(cc1OCCCOc1ccc(-n3c(/C=C/c4ccccc4)nc4ccccc4c3=O)cc1)N=C[C@@H]1CCCN1C2=O` [5k, 7-methoxy-8-{3-[(4-4-oxo-2-[(E)-2-phenyl-1-ethenyl]-3,4-dihydro-3-quinazolinylphenyl)oxy]propoxy}-(11aS)-1,2,3,11a-tetrahydro-5H-pyrrolo[2,1-c][1,4]benzodiazepine-5-one], the concentration for 50% growth inhibition (GI50) worked out at 2150 nM in the experiment with HOP-62; 1880 nM with A-549 (A-549, lung); 140 nM with DWD; 1850 nM in the experiment on GURAV; 1780 nM in the experiment on KB; 140 nM with A-2780 (A-2780, ovary). In addition, the 50% growth inhibitory concentration (GI50) in the experiment on PC-3 stood at 160 nM; in the experiment with Si-Ha, 2000 nM; with Colo-205, 2120 nM; in the experiment on Zr-75-1 it was 170 nM; in the experiment with MCF7, 2030 nM. Moreover, the “ΔTm after incubation at 37° C. for 0 h” value in experiment [7] amounted to 1.0 °C. In experiment [7], the “ΔTm after incubation at 37° C. for 18 h” value was 2.0 °C.
For `COc1cc2c(cc1OCCCCOc1ccc(-n3c(/C=C/c4ccccc4)nc4ccccc4c3=O)cc1)N=C[C@@H]1CCCN1C2=O` [5l, 7-methoxy-8-{4-[(4-4-oxo-2-[(E)-2-phenyl-1-ethenyl]-3,4-dihydro-3-quinazolinylphenyl)oxy]butoxy}-(11aS)-1,2,3,11a-tetrahydro-5H-pyrrolo[2,1-c][1,4]benzodiazepine-5-one], the GI50 is 2330 nM in the experiment with HOP-62; 2390 nM in the experiment on A-549 (A-549, lung); 160 nM with DWD; 1930 nM in the experiment on GURAV; 2070 nM in the experiment on KB; 160 nM in the experiment with A-2780 (A-2780, ovary). Moreover, the 50% growth inhibitory concentration (GI50) in the experiment on PC-3 is 1910 nM; in the experiment on Si-Ha, 2190 nM; in the experiment on Colo-205, 2230 nM; in the experiment with Zr-75-1 it was 2440 nM. Besides, in experiment [7], the “ΔTm after incubation at 37° C. for 0 h” value was 1.2 °C. In addition, the “ΔTm after incubation at 37° C. for 18 h” value in experiment [7] came out at 2.3 °C.
Consider `COc1cc2c(cc1OCCCCCOc1ccc(-n3c(/C=C/c4ccccc4)nc4ccccc4c3=O)cc1)N=C[C@@H]1CCCN1C2=O` [5m, 7-methoxy-8-{5-[(4-4-oxo-2-[(E)-2-phenyl-1-ethenyl]-3,4-dihydro-3-quinazolinylphenyl)oxy]pentyloxy}-(11aS)-1,2,3,11a-tetrahydro-5H-pyrrolo[2,1-c][1,4]benzodiazepine-5-one], for which the GI50 in the experiment on HOP-62 came to 2310 nM; with A-549 (A-549, lung) it was 2620 nM; in the experiment with DWD it was 170 nM; with GURAV it was 1820 nM; in the experiment on KB it was 2150 nM; in the experiment on A-2780 (A-2780, ovary), 150 nM. The GI50 worked out at 1830 nM with PC-3; 2080 nM with Si-Ha; 2000 nM in the experiment on Colo-205; 2090 nM in the experiment on Zr-75-1; 2500 nM in the experiment with MCF7. In addition, the “ΔTm after incubation at 37° C. for 0 h” value in experiment [7] came out at 1.1 °C. Moreover, the “ΔTm after incubation at 37° C. for 18 h” value in experiment [7] was found to be 2.1 °C.
With `COc1cc2c(cc1O)N=CC1CCCN1C2=O` (stereo not drawn) [DC-81, reference compound], in experiment [7], the “ΔTm after incubation at 37° C. for 0 h” value was found to be 0.3 °C and the “ΔTm after incubation at 37° C. for 18 h” value was 0.7 °C.
